# What was measured:
# [1] = Fluorescence of the adducts with butylamine in acetonitrile; type: physicochemical; design: Δ Stokes: unit not given here; details: Bioconjugated molecule (BuNH2) in CH3CN
# Method: (§1) Apparatus: • Acetonitrile: VWR HPLC quality • Micropipette: 5 μl, 10 μl, 200 μl, 1000 μl, • Eppendorf: Safe lock tube PCR • UV cuvette: Varian-Quartz 10 mm thick • Fluorescence cuvette: Hellma-Quartz 10 mm thick • Vortex: Bender & Hobein-Genie 2 • Centrifuge: Baky Bug • Absorbance spectrophotometer: Varian-Cary 50 scan • Fluorescence spectrophotometer: Varian-Cary Eclipse • Thermostated bath: Varian-Cary single cell peltier accessory Stock Solution:
# (§2) Approximately exactly 1 to 2 mg of compound Ia-Io are weighed out in a 1.5 mL Eppendorf tube. The stock solutions are then prepared by adding exactly 1 mL of acetonitrile and the Eppendorf tubes are then stored protected from light.
# Two protocols were implemented for the fluorescence tests. • For compounds Ii-Ik: 125 μL of the preceding solution (absorbance solution) are diluted to 1.25 mL by adding 1125 μl of acetonitrile to a fluorescence cuvette. The analysis is then performed on the fluorescence spectrophotometer by excitation at the respective maximum-absorption wavelengths. • For compounds Ia-Ih and Il-Io: 1250 μl of the preceding solution (absorbance) are placed in a fluorescence cuvette. The analysis is then performed on the fluorescence spectrophotometer by excitation at the respective maximum-absorption wavelengths.
# [2] = Absorbance of the adducts with butylamine in acetonitrile; type: physicochemical; details: Bioconjugated molecule (BuNH2) in CH3CN
# Method: as §1, §2
# 30 μl of stock solution are placed in a 1.5 mL Eppendorf tube. At room temperature, 10 μl (or 30 μl in the case of Ik) of a 0.15 M solution of butylamine/acetonitrile are added and the medium is stirred by vortex and then centrifuged. After diluting to 1 mL by adding 960 μl of acetonitrile (or 940 μl in the case of Ik), the clear solution is transferred into a UV cuvette and then made up to 2 mL with acetonitrile. The analysis is then performed after producing a “blank” spectrum with a pure acetonitrile solution.
# [3] = cited from earlier work
# [4] = Photobleaching of stained standard proteins in gel under UV transilluminator; type: physicochemical; details: protein-stained gel, first-order exponential decay fit, deduced from FIG. 1
# Method: The compounds were dissolved at 10 mg/mL in DMSO. The stock solutions obtained were diluted to 1 mg/mL in water and divided into 100 μL aliquots for storage. All the products and aliquots were stored at −80° C.
# Standard proteins (SDS labeling kit-low molecular weight sold by GE, 17-0446-01) were diluted in an LDS buffer (250 μL Invitrogen 4×LDS buffer, 100 μL of 1 M DDT, 650 μL of water) to create serial dilutions ranging from 128 ng/STI band to 125 pg/STI band.
# 5 μL of each protein solution were loaded onto NuPAGE® Novex® 12% bis-tris gels (1.0 mm thick, 12 wells, Invitrogen NP0342BOX). The gels were subjected to a current of 150 V for approximately 65 minutes using MES buffer (50 mM MES, 50 mM tris, 1 mM EDTA, 0.1% SDS, pH 7.3) so that the buffer front arrives just up to the gel. After eluting the dye, the gels were fixed for 1 to 17 hours (100 mL of fixing solution with 15% EtOH (v/v) and 1% citric acid) in individual lanes. The fixing solution used was replaced with fresh solution one hour after staining. The gels were stained for 1 hour in 50 mL of sodium borate buffer at 100 mM (pH 10.9) containing either […] of LavaPurple gel dye (Fluorotechnics; LP-011005) or one of the test compounds (50 μL for a 1 mg/mL solution). The gels were treated with 100 mL of 15% ethanol and then washed with 100 mL of fixing solution for 30 minutes.
# Imaging was performed using a Typhoon Trio imager (excitation: 532 nm, emission filter: 610BP30, 540 PMT, resolution: 100 μm) using a normal sensitivity. The recorded image corresponds to the scan at time zero. The gels were then placed in a UV transilluminator for 60, 146, 240, 330, 630 and 990 seconds (total exposure time), a Typhoon scanner image being recorded between each exposure. The volumes of the bands were analyzed using the Image-Quant TL software, and all the band volumes were normalized with phosphorylase B. The photobleaching was analyzed by graphically representing the band volumes as a function of the exposure time (GraphPad Prism v4 software) and by fitting the curve to a first-order exponential decay to determine a pseudofirst-order rate constant.
# FIG. 1 represents the decrease of the normalized residual signal of compounds (Ii), (Ij), (Ik), (In) and (Io) according to the invention and of epicocconone.
# From this FIGURE, the half-life times of the compounds may be deduced: […]
# [5] = water and lipid bilayers; cited from earlier work
smiles,measurement,setting,value
"C/C=C/C=C/C=C/C(=O)/C=C(\O)C1=C2C=C3C[C@@H](CO)OC=C3C(=O)[C@@]2(C)OC1=O [epicocconone, 5,6-dihydro-3-[(1Z,4E,6E,8E)-1-hydroxy-3-oxo-1,4,6,8-decatetraenyl]-6-hydroxymethyl-9a-methyl-2H-furo[3,2g][2]benzopyran-2,9-(9aH)-dione, reference compound]",Δ Stokes,[1]; emission minus excitation wavelength,95
same,λ fluo (λ excitation) (nm),[1]; excitation at maximum-absorption wavelength,610 nm
same,Intensity normalized to 50 μM,[1]; fluorescence intensity,3950
same,"λ UV (nm), second maximum","[2]; longer-wavelength absorption maximum, used for excitation",515 nm
same,"λ UV (nm), first maximum",[2]; shorter-wavelength absorption maximum,388 nm
same,fluorescence emission wavelength of enamine adduct,"[3]; adduct with amine functions, UV-Vis radiation, for example at 395 nm or 520 nm",about 600 nm
same,Stokes shift,[3]; difference between absorption and emission wavelength,about 100 nm
same,Half-life time,[4],11.3 min
same,solubility,[5],good solubility both in water and in lipid bilayers
